20 molecules from ChEMBL document CHEMBL5230136, “A review: Biologically active 3,4-heterocycle-fused coumarins” (Eur J Med Chem, 2021) can be followed below.

In brackets after ≈: the same amount, converted by molar mass.

One assay relates to Botrytis cinerea. Kind of assay: Antifungal activity against Botrytis cinerea. Format: functional, organism-based.
The test system of the next assay is Fusarium oxysporum. Kind of assay: Antifungal activity against Fusarium oxysporum assessed as zone of inhibition. The format is functional.
For a further assay, the system named is Klebsiella aerogenes. Kind of assay: Antibacterial activity against Enterobacter aerogenes assessed as zone of inhibition. The format is functional.
A further assay relates to Escherichia coli. Kind of assay: Antibacterial activity against Escherichia coli assessed as zone of inhibition. The format is functional.
The subject of a further assay is Pseudomonas aeruginosa. Put plainly: Antibacterial activity against Pseudomonas aeruginosa assessed as zone of inhibition. Format: functional.
The next assay has as its system Penicillium italicum. Put plainly: Antifungal activity against Penicillium italicum assessed as zone of inhibition. Format: functional.
For another assay, the system named is Aspergillus niger. Put plainly: Antifungal activity against Aspergillus niger assessed as zone of inhibition. Format: functional.
Another assay deals with Staphylococcus aureus. Kind of assay: Antibacterial activity against Staphylococcus aureus assessed as zone of inhibition. The format is functional.
Assay [1] has as its system Bacillus cereus. Kind of assay: Antibacterial activity against Bacillus cereus assessed as zone of inhibition at 20 mg/ml. Format: functional. Particulars: read-out: IZ.
Another assay concerns HCT-116/VM46. Put plainly: cells. Conditions: Homo sapiens.
Another assay deals with Colletotrichum camelliae. Kind of assay: Antifungal activity against Colletotrichum camelliae. The format is functional, organism-based.
Assay [2] has as its target T1, D(4) dopamine receptor (Homo sapiens) (UniProt P21917).
T1 sequence (whole entry): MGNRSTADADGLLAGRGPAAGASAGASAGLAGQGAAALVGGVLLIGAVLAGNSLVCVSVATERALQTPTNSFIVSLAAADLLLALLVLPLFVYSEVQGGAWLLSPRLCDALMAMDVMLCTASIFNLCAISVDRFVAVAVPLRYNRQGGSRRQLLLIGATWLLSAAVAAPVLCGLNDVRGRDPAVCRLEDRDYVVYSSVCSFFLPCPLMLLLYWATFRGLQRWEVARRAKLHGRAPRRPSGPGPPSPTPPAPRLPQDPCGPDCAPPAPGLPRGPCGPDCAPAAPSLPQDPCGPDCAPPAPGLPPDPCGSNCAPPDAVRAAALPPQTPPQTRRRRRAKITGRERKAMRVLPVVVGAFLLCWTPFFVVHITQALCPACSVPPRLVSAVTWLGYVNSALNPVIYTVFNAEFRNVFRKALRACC
Put plainly: Inhibition of human D4 receptor.

The subject of another assay is Rhizoctonia solani. Put plainly: Antifungal activity against Rhizoctonia solani at 150 uM. Format: functional, organism-based.
The next assay relates to Penicillium chrysogenum. Kind of assay: Antifungal activity against Penicillium chrysogenum assessed as zone of inhibition. Format: functional.
Another assay relates to Aspergillus ochraceus. Kind of assay: Antifungal activity against Aspergillus ochraceus assessed as zone of inhibition. The format is functional.
In assay [3] the test system is Bacillus cereus. Put plainly: Antibacterial activity against Bacillus cereus assessed as zone of inhibition. The format is functional.
In the next assay the test system is Bacillus subtilis. Put plainly: Antibacterial activity against Bacillus subtilis assessed as zone of inhibition. The format is functional.
Assay [4] concerns Serratia marcescens. Kind of assay: Antibacterial activity against Serratia marcescens assessed as zone of inhibition at 20 mg/ml. The format is functional. Particulars: read-out: IZ.
For another assay, the system named is Proteus mirabilis. Put plainly: Antibacterial activity against Proteus mirabilis assessed as zone of inhibition. Format: functional.
For assay [5], the system named is Serratia marcescens. Kind of assay: Antibacterial activity against Serratia marcescens assessed as zone of inhibition. The format is functional.
A short description of assay [6]: Antiproliferative activity against human U87 cells assessed as reduction in cell viability by MTT assay. The format is functional, cell-based, U-87MG ATCC. Particulars: U-87 MG. In general terms: Tetrazolium dyes change colour on reduction, which living cells bring about.

As to `C=CCOc1ccc2c(c1)oc(=O)c1c(C)coc12`, in the assay with Botrytis cinerea, the EC50 was determined as 1.72 µg/mL (≈ 6.71 µM).

`NC1NC=NC2=C1C(c1ccc(Br)cc1)c1c(c3ccccc3oc1=O)O2` (configuration not stated): the “inhibition zone (IZ)” value was found to be 18 mm in the assay on Fusarium oxysporum; 20 mm in the assay with Klebsiella aerogenes; 21 mm with Escherichia coli; 18 mm in the assay with Pseudomonas aeruginosa; 16 mm in the assay on Penicillium italicum; 14 mm in the assay with Aspergillus niger. Besides, the “inhibition zone (IZ)” value in the assay on Staphylococcus aureus is listed as 29 mm. The zone of inhibition at 20000 µg/mL with Bacillus cereus [1] was 22 mm.

As to `CC[C@]1(O)C[C@@H]2CN(CCc3c([nH]c4ccccc34)[C@@](C(=O)OC)(c3cc4c(cc3OC)N(C)[C@H]3[C@@](O)(C(=O)OC)[C@H](OC(C)=O)[C@]5(CC)C=CCN6CC[C@]43[C@@H]65)C2)C1` [VINBLASTINE], in the assay with HCT-116/VM46, it took 0.002 µM to reach half-maximal inhibition (IC50).

As for `Cc1coc2c1c(=O)oc1ccccc12`, it took 8.74 µg/mL (≈ 43.7 µM) to reach a half-maximal effect with Colletotrichum camelliae (EC50).

Take `CC(CN1CCC2c3ccccc3OC(=O)C2C1)N(C)C` (configuration not stated): the ID50 in assay [2] came out at 0.192 mg/kg.

In turn, `COc1ccc2c(c1)oc(=O)c1c(C)coc12` showed a 50% effective concentration (EC50) in the assay on Rhizoctonia solani of 3.57 µg/mL (≈ 15.5 µM).

Turning to NYSTATIN, the inhibition zone (IZ) is 26 mm in the assay with Fusarium oxysporum, 24 mm in the assay with Penicillium chrysogenum, 20 mm in the assay on Penicillium italicum and 24 mm with Aspergillus ochraceus.

With `CC1(C)S[C@@H]2[C@H](NC(=O)[C@H](N)c3ccc(O)cc3)C(=O)N2[C@H]1C(=O)O` [AMOXICILLIN], the “inhibition zone (IZ)” value in the assay with Bacillus cereus [3] was 20 mm; in the assay with Klebsiella aerogenes, 10 mm; in the assay on Escherichia coli it was 36 mm; with Pseudomonas aeruginosa, 11 mm; in the assay on Bacillus subtilis it was 12 mm; in the assay with Staphylococcus aureus, 29 mm.

For the molecule `COc1cc2c(cc1OC)C1CCN(CCN3CC4CCC(CC4)C3)CC1C(=O)O2` (configuration not stated), the ID50 in assay [2] worked out at 0.113 mg/kg.

With `O=c1[nH]cnc2c1C(c1ccc(Br)cc1)c1c(c3ccccc3oc1=O)O2` (configuration not stated), the “inhibition zone (IZ)” value with Bacillus cereus [3] stood at 16 mm; in the assay on Fusarium oxysporum, 20 mm; with Klebsiella aerogenes, 12 mm; with Escherichia coli, 13 mm; with Pseudomonas aeruginosa, 10 mm; in the assay on Penicillium italicum it was 12 mm. Also, the “inhibition zone (IZ)” value in the assay on Aspergillus niger was 21 mm; with Bacillus subtilis, 18 mm; with Staphylococcus aureus it was 22 mm.

Take `CCOc1ccc2c(c1)oc(=O)c1c(C)coc12`: in the assay with Rhizoctonia solani, the response was half-maximal at 8.87 µg/mL (≈ 36.3 µM) (EC50).

As for `CCSc1nn2c(=N)c3c(=O)oc4ccccc4c3nc2s1`, the “inhibition zone (IZ)” value with Aspergillus niger amounted to 15 mm.

Regarding `CCOC(=O)c1nc2c3c(ncn2n1)Oc1c(c(=O)oc2ccccc12)C3c1ccc(Cl)cc1` (configuration not stated), the “inhibition zone (IZ)” value in the assay on Bacillus cereus [3] was determined as 22 mm; with Penicillium chrysogenum, 20 mm; with Aspergillus niger, 14 mm; in the assay on Proteus mirabilis, 23 mm; in the assay on Aspergillus ochraceus, 19 mm; in the assay with Staphylococcus aureus, 23 mm. Moreover, the “inhibition zone (IZ)” value in the assay with Serratia marcescens [5] was 25 mm. In addition, the zone of inhibition at 20000 µg/mL in the assay on Serratia marcescens [4] turned out to be 25 mm.

Turning to `N#CC1=C(N)Oc2c(c(=O)oc3ccccc23)C12C(=O)N(CCCCBr)c1ccccc12` (configuration not stated), in assay [6], the IC50 is 78 µM.

In turn, `COc1ccc2c(c1)OC(=O)C1CN(CCN3CC4CCC(CC4)C3)CCC21` (configuration not stated) came in with an ID50 in assay [2] of 0.035 mg/kg.

As for `O=NN(CCCl)C(=O)NCCCl` [CARMUSTINE], the IC50 in assay [6] came out at 3.9 µg/mL.

As for `N#CC1=C(N)Oc2c(c(=O)oc3ccc(Br)cc23)C12C(=O)Nc1ccccc12` (configuration not stated), the IC50 in assay [6] amounted to 78 µM.

As for `C=CCOc1ccc2c(c1)oc(=O)c1c(C)c(C)oc12`, in the assay on Botrytis cinerea, a half-maximal response (EC50) required 1.72 µg/mL (≈ 6.36 µM).

In the assay on Botrytis cinerea, `CCOc1ccc2c(c1)oc(=O)c1c(C)c(C)oc12` came in with an EC50 of 1.72 µg/mL (≈ 6.66 µM).

Regarding `COc1ccc2ccc(=O)oc2c1CC=C(C)C` [OSTHOLE], the concentration for a half-maximal effect (EC50) in the assay on Colletotrichum camelliae is 16.8 µg/mL (≈ 68.9 µM); in the assay on Rhizoctonia solani, 6.88 µg/mL (≈ 28.2 µM); in the assay with Botrytis cinerea it was 6.45 µg/mL (≈ 26.4 µM).

Usually EC50 stands for the midpoint of the concentration-response curve. A higher EC50 goes with weaker potency. The IC50 is the concentration needed to halve the response being measured.
